Data published in ChEMBL document CHEMBL1201862, “PubChem BioAssay data set” (2004).
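Tested at 5 concentrations; 48 h exposure; 96-well plates; endpoints linearly interpolated, else capped at highest concentration. GI50: concentration for 50% inhibition of growth.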 Activity calls are given as the source filed them. Cut-off read from the data, not from the text of the source: active = GI50 up to about 1.1 µM and inactive = higher.

Tests used:
Assay in all cases: growth of human tumour cells (NCI), 48 h
OVCAR-3 = system: OVCAR-3
KM12 = system: KM12
HOP-92 = system: HOP-92
EKVX = system: EKVX
SF-295 = system: SF-295
CAKI-1 = system: CAKI-1
MDA-MB-231 = system: MDA-MB-231
SR = system: SR
M14 = system: M14
MDA-MB-435 = system: MDA-MB-435
Malme-3M = system: Malme-3M
LOX IMVI = system: LOX IMVI
UACC-257 = system: UACC-257
PC-3 = system: PC-3
HOP-62 = system: HOP-62
BT-549 = system: BT-549
MCF7 = system: MCF7
A549 = system: A549
786-0 = system: 786-0
SNB-75 = system: SNB-75

Measured: GI50

COc1cccc(-c2ccc3c4c2O[C@H]2C(=O)CC[C@@]5(O)[C@@H](C3)N(CC3CC3)CC[C@]425)c1
inactive: OVCAR-3 14.4 µM | KM12 17.7 µM | HOP-92 15.3 µM | EKVX 17.1 µM | SF-295 18.4 µM | CAKI-1 16.6 µM | MDA-MB-231 15.8 µM | SR 10.3 µM | M14 14.5 µM | MDA-MB-435 12.9 µM | Malme-3M 20.9 µM | LOX IMVI 16.3 µM | UACC-257 25.9 µM | PC-3 13.4 µM | HOP-62 19.5 µM | BT-549 18.4 µM | MCF7 16 µM | A549 18.2 µM | 786-0 16.1 µM

CCOC(=O)N(C)CCC1CC=CC(=O)C1c1cccc(OC)c1OC (centres undefined)
inactive: OVCAR-3 11.8 µM | KM12 14.1 µM | HOP-92 65.3 µM | EKVX 25.8 µM | SF-295 31 µM | CAKI-1 20.9 µM | MDA-MB-231 26.1 µM | SR 14.3 µM | M14 19.5 µM | MDA-MB-435 10.6 µM | Malme-3M 22.9 µM | LOX IMVI 38.7 µM | UACC-257 13.4 µM | PC-3 12.2 µM | HOP-62 24.4 µM | BT-549 15 µM | MCF7 16.9 µM | A549 25.4 µM | 786-0 17 µM

O=C(CN1CCOCC1)NC1=Nc2ncccc2C(=O)NN1
inactive: OVCAR-3 > 10 µM | KM12 > 10 µM | HOP-92 > 10 µM | EKVX > 10 µM | SF-295 > 10 µM | MDA-MB-231 > 10 µM | SR > 10 µM | M14 > 10 µM | MDA-MB-435 > 10 µM | Malme-3M > 10 µM | LOX IMVI > 10 µM | UACC-257 > 10 µM | SNB-75 > 10 µM | PC-3 > 10 µM | HOP-62 > 10 µM | BT-549 > 10 µM | MCF7 > 10 µM | A549 > 10 µM | 786-0 > 10 µM

c1ccc(-c2csc3c2-n2cccc2C3N2CCCC2)cc1 (centres undefined)
inactive: OVCAR-3 6.9 µM | KM12 30.7 µM | HOP-92 21 µM | EKVX 13.8 µM | SF-295 23.8 µM | CAKI-1 72.3 µM | MDA-MB-231 35.6 µM | SR 57.7 µM | MDA-MB-435 33.7 µM | Malme-3M 23.9 µM | LOX IMVI 40.7 µM | UACC-257 7.36 µM | SNB-75 14.9 µM | PC-3 32.7 µM | HOP-62 26.5 µM | BT-549 3.3 µM | MCF7 30.5 µM | A549 26.4 µM | 786-0 58.1 µM

COc1c(OC/C=C(\C)CCC=C(C)C)ccc2ccc(=O)oc12 [COLLININ]
inactive: OVCAR-3 > 100 µM | KM12 43.6 µM | HOP-92 77.4 µM | EKVX 83.9 µM | SF-295 > 100 µM | CAKI-1 > 100 µM | MDA-MB-231 > 100 µM | SR 61.5 µM | M14 > 100 µM | MDA-MB-435 > 100 µM | LOX IMVI > 100 µM | UACC-257 > 100 µM | SNB-75 > 100 µM | PC-3 24.2 µM | HOP-62 > 100 µM | BT-549 53.3 µM | MCF7 > 100 µM | A549 > 100 µM | 786-0 > 100 µM

Fc1ccccc1C1SCC2=Nc3ccccc3CN21 (centres undefined)
inactive: OVCAR-3 97.1 µM | KM12 > 100 µM | HOP-92 > 100 µM | EKVX > 100 µM | SF-295 70.8 µM | CAKI-1 > 100 µM | MDA-MB-231 > 100 µM | SR 79.8 µM | M14 > 100 µM | MDA-MB-435 > 100 µM | LOX IMVI > 100 µM | UACC-257 > 100 µM | SNB-75 > 100 µM | PC-3 > 100 µM | HOP-62 67.1 µM | BT-549 > 100 µM | MCF7 80.2 µM | A549 > 100 µM | 786-0 95.3 µM

C#CCOC(=O)C(N)CCCNC(=N)N (centres undefined)
inactive: KM12 > 100 µM | HOP-92 > 100 µM | EKVX > 100 µM | CAKI-1 > 100 µM | MDA-MB-231 > 100 µM | SR > 100 µM | M14 > 100 µM | MDA-MB-435 > 100 µM | Malme-3M > 100 µM | LOX IMVI > 100 µM | UACC-257 > 100 µM | SNB-75 > 100 µM | PC-3 > 100 µM | HOP-62 > 100 µM | BT-549 > 100 µM | MCF7 > 100 µM | A549 > 100 µM | 786-0 > 100 µM

Cc1nc(N)sc1C(=O)Nc1nc[nH]n1
inactive: OVCAR-3 > 100 µM | KM12 > 100 µM | HOP-92 > 100 µM | EKVX > 100 µM | SF-295 > 100 µM | CAKI-1 > 100 µM | MDA-MB-231 > 100 µM | SR 14.1 µM | M14 > 100 µM | MDA-MB-435 > 100 µM | LOX IMVI > 100 µM | UACC-257 > 100 µM | PC-3 > 100 µM | HOP-62 > 100 µM | BT-549 > 100 µM | MCF7 > 100 µM | A549 > 100 µM | 786-0 > 100 µM

COc1cc(OCc2ccccc2)c2c(CCC(=O)O)cc(=O)oc2c1.COc1cc(OCc2ccccc2)cc2oc(=O)cc(CCC(=O)O)c12
inactive: OVCAR-3 31 µM | KM12 43.8 µM | HOP-92 32 µM | EKVX 36.8 µM | CAKI-1 28.6 µM | MDA-MB-231 29.1 µM | SR 38.9 µM | M14 92.5 µM | MDA-MB-435 61.7 µM | Malme-3M > 100 µM | LOX IMVI 20.9 µM | UACC-257 > 100 µM | SNB-75 60.1 µM | PC-3 56.8 µM | BT-549 57.5 µM | MCF7 2.59 µM | A549 43.3 µM | 786-0 92.5 µM

CC(C)(C)CNCCCNc1ccc(Cl)cc1
inactive: KM12 36 µM | HOP-92 13.6 µM | EKVX 48.6 µM | SF-295 17.1 µM | MDA-MB-231 23.2 µM | SR 5.41 µM | M14 23 µM | MDA-MB-435 30.1 µM | Malme-3M 22 µM | LOX IMVI 25.3 µM | UACC-257 22.8 µM | PC-3 51.3 µM | HOP-62 97.1 µM | BT-549 70.6 µM | MCF7 11.9 µM | A549 > 100 µM | 786-0 82.2 µM

[N-]=[N+]=Nc1nc2ccccc2c(N=[N+]=[N-])c1Cl
inactive: OVCAR-3 > 100 µM | KM12 > 100 µM | HOP-92 30.3 µM | SF-295 > 100 µM | CAKI-1 > 100 µM | MDA-MB-231 > 100 µM | SR > 100 µM | M14 > 100 µM | MDA-MB-435 > 100 µM | Malme-3M > 100 µM | LOX IMVI > 100 µM | UACC-257 > 100 µM | SNB-75 24.9 µM | PC-3 > 100 µM | HOP-62 79.1 µM | BT-549 28.6 µM | MCF7 > 100 µM | A549 > 100 µM | 786-0 56.2 µM
